According to US8163737B2 (Vertex Pharmaceuticals Incorporated, priority 2006, dated 2012):
pIC50, pKi: −log10 of the molar value.

What was measured:
endogenous CGRP receptor = endogenous CGRP receptor (Homo sapiens, UniProt O60894+Q16602); experiment: CGRP functional antagonism using SK-N-MC-BLA (4C10), β-lactamase transcriptional reporter assay; assay type: cell-based; conditions: SK-N-MC (4C10) cells, inhibition of β-lactamase expression in the presence of 200 pM CGRP
[1] = biological target: T1, CGRP receptor (SK-N-MC membrane) (Homo sapiens, UniProt O60894+Q16602); experiment: I125-CGRP binding displacement assay on purified SK-N-MC membrane
T1 construct: Purified SK-N-MC membrane was purchased from Perkin Elmer; purchased Perkin Elmer; host or cells: SK-N-MC membrane
Experimental: Purified SK-N-MC membrane was purchased from Perkin Elmer. The membrane was thawed quickly and placed on ice. The compounds were diluted with CGRP binding solution (25 mM Tris-HCl, pH7.4, 5 mM MgCl2, 0.1% BSA and 0.05% Tween). The membrane was diluted 1:20 with the binding solution and homogenized with Tissue Matster-50 Homogenizer (Omni International) for 30 sec. The homogenized membrane was added to compounds in the binding solution. […] After 2 hour incubation at room temperature, the reaction was stopped by rapid filtration through 0.5% PEI treated GF/C filter plate (Perkin Elmer) and the filter plate was washed with ice-cold washing solution (50 mM Tris HCl, pH7.4, 5 mM MgCl2 and 0.1% BSA) using cell harvestor (Tomtec). The radioactivity of the filter plates were read on Topcount (Packard). The nonspecific binding was determined in the control reaction where 1 uM unlabelled CGRP was preincubated with the membrane prior to I125-CGRP addition. The total binding was determined in the control reaction of the membrane and I125-CGRP in the absence of compound. The percent displacement of I125-CGRP with compounds was calculated using nonspecific and total binding controls. The curve fitting was carried out using MOD3.

T1 sequence (Q16602 23-461): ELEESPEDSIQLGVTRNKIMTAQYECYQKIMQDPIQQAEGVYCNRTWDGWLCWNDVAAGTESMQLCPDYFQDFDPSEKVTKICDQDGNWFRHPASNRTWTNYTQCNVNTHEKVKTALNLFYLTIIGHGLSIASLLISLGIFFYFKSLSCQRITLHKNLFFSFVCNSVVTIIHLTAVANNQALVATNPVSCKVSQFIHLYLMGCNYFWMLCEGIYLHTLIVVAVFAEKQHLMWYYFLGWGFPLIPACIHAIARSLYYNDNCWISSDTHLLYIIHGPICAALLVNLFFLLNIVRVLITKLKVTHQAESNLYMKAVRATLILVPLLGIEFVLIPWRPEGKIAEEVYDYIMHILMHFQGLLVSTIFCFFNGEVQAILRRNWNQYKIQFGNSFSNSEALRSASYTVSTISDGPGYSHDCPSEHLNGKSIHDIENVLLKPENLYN
T1 sequence (O60894 27-148): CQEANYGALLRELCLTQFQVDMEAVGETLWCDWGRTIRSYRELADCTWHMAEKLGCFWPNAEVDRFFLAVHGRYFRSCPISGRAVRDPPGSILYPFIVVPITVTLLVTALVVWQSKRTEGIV
Chain of endogenous CGRP receptor (Q16602 23-461): as the sequence (Q16602 23-461) above
Chain of endogenous CGRP receptor (O60894 27-148): as the sequence (O60894 27-148) above

SMILES | pIC50 (endogenous CGRP receptor) | pKi [1]
CC(C)(C)CCN1C(=O)C(CC(=O)N2CCC(N3Cc4ccccc4NC3=O)CC2)SC1c1ccccc1N1CCC(O)CC1 (stereo not drawn) [Compound 49] | > 6.00 | > 6.00
CC(C)(C)CCN1C(=O)C(CC(=O)N2CCC(N3CCc4ccccc4NC3=O)CC2)SC1c1ccccc1 (stereo not drawn) [Compound 8] | > 6.00 | > 6.00
N#Cc1ccccc1C1SC(CC(=O)N2CCC(N3CCc4ccccc4NC3=O)CC2)C(=O)N1CC1CCCCC1 (stereo not drawn) [Compound 175] | > 6.00 | > 6.00
O=C(CC1SC(c2ccccc2)N(Cc2ccc(F)cc2)C1=O)N1CCC(N2Cc3ccccc3NC2=O)CC1 (stereo not drawn) [Compound 208] | > 6.00 | > 6.00
CC(C)(C)CCN1C(=O)[C@H](CC(=O)N2CCC(n3c(=O)[nH]c4ncccc43)CC2)SC1c1cccc(F)c1N1CCC(O)C1 (stereo partly drawn) [Compound 484] | > 6.00 | > 6.00
CC(C)CCN1C(=O)C(CC(=O)N2CCC(N3CCc4ccccc4NC3=O)CC2)SC1c1ccccc1 (stereo not drawn) [Compound 78] | > 6.00 | > 6.00
CC(C)CCN1C(=O)C(CC(=O)N2CCC(N3Cc4ccccc4NC3=O)CC2)SC12CCSCC2 (stereo not drawn) [Compound 174] | > 6.00 | > 6.00
CN1CCN(c2ccccc2C2SC(CC(=O)N3CCC4(CC3)CC(=O)Nc3ccccc3O4)C(=O)N2CCC(C)(C)C)CC1 (stereo not drawn) [Compound 328] | > 6.00 | > 6.00
O=C(CC1SC(c2ccccc2)N(CCc2ccccn2)C1=O)N1CCC(N2Cc3ccccc3NC2=O)CC1 (stereo not drawn) [Compound 128] | 5.30 to 6.00 | > 6.00
CC(C)(C)CCN1C(=O)C(CC(=O)N2CCC(N3CCc4ccccc4NC3=O)CC2)SC1c1ccccc1-n1ccnc1 (stereo not drawn) [Compound 28] | > 6.00 | > 6.00
CC(C)(C)CCN1C(=O)C(CC(=O)N2CCC(n3c(=O)[nH]c4ncccc43)CC2)SC1c1ccccc1N1CCC(O)CC1 (stereo not drawn) [Compound 415] | 5.30 to 6.00 | > 6.00
CN1CCN(c2c(Cl)cccc2C2SC(CC(=O)N3CCC(n4c(=O)[nH]c5ncccc54)CC3)C(=O)N2CCC(C)(C)C)CC1 (stereo not drawn) [Compound 357] | > 6.00 | > 6.00
CC(C)CCN1C(=O)[C@H](CC(=O)N2CCC(N3Cc4ccccc4NC3=O)CC2)SC1c1ccccn1 (stereo partly drawn) [Compound 148] | 5.30 to 6.00 | > 6.00
CN1CCN(c2c(F)cccc2C2SC(CC(=O)N3CCC(N4CCc5ccccc5NC4=O)CC3)C(=O)N2CCC(C)(C)C)CC1 (stereo not drawn) [Compound 324] | > 6.00 | > 6.00
CC(C)(C)CCN1C(=O)[C@H](CC(=O)N2CCC(n3c(=O)[nH]c4ncccc43)CC2)S[C@H]1c1cccc(F)c1N1CCC(O)C1 (stereo partly drawn) [Compound 462] | > 6.00 | > 6.00
CC(C)CCN1C(=O)[C@H](CC(=O)N2CCC(N3CCc4ccccc4NC3=O)CC2)SC1c1cccc(F)c1N1CCN(C(C)(C)C)CC1 (stereo partly drawn) [Compound 544] | > 6.00 | > 6.00
CC(C)(C)CCN1C(=O)[C@H](CC(=O)N2CCC(O)(c3ccc(Br)cc3)CC2)SC1c1cccc(F)c1N1CCN(C(C)(C)C)CC1 (stereo partly drawn) [Compound 457] | > 6.00 | > 6.00
CCN1CCN(c2c(F)cccc2C2SC(CC(=O)N3CCC(N4CCc5ccccc5NC4=O)CC3)C(=O)N2CCC(C)(C)C)CC1 (stereo not drawn) [Compound 345] | > 6.00 | > 6.00
CC(C)(C)CCN1C(=O)C(CC(=O)N2CCC(n3c(=O)[nH]c4ccccc43)CC2)S[C@H]1c1ccccc1N1CCC(O)CC1 (stereo partly drawn) [Compound 301] | > 6.00 | > 6.00
CC(C)(C)CCN1C(=O)[C@H](CC(=O)N2CCC(N3CCc4ccccc4NC3=O)CC2)SC1c1cccc(F)c1N1CCC(F)(F)C1 (stereo partly drawn) [Compound 483] | < 5.30 | > 6.00
CC(C)(C)CCN1C(=O)[C@H](CC(=O)N2CCC(N3CCc4ccccc4NC3=O)CC2)SC1c1cccc(F)c1N1CCN(C2CCC2)CC1 (stereo partly drawn) [Compound 543] | > 6.00 | > 6.00
CNC1CCN(c2c(F)cccc2[C@@H]2S[C@@H](CC(=O)N3CCC(n4c(=O)[nH]c5ncccc54)CC3)C(=O)N2CCC(C)(C)C)C1 (stereo partly drawn) [Compound 459] | > 6.00 | > 6.00
O=C(CC1SC(c2ccccc2)N(Cc2cccnc2)C1=O)N1CCC(N2Cc3ccccc3NC2=O)CC1 (stereo not drawn) [Compound 278] | > 6.00 | > 6.00

SMILES | pIC50 (endogenous CGRP receptor) | pKi [1]
CC(C)CCN1C(=O)C(CC(=O)N2CCC(N3Cc4ccccc4NC3=O)CC2)SC1c1cccc(F)c1 (stereo not drawn) [Compound 67] | > 6.00 | > 6.00
CC(C)CCN1C(=O)C(CC(=O)N2CCC(n3cc(-c4ccccc4)[nH]c3=O)CC2)SC1C1CCCC1 (stereo not drawn) [Compound 87] | 5.30 to 6.00 | 5.30 to 6.00
COCCN1C(=O)[C@H](CC(=O)N2CCC(n3c(=O)[nH]c4ncccc43)CC2)SC1c1cccc(F)c1N1CCN(C(C)(C)C)CC1 (stereo partly drawn) [Compound 535] | > 6.00 | > 6.00
O=C(CC1SC(c2ccccc2)N(CC2CCCO2)C1=O)N1CCC(N2Cc3ccccc3NC2=O)CC1 (stereo not drawn) [Compound 113] | > 6.00 | > 6.00
CC(C)(C)CCN1C(=O)[C@H](CC(=O)N2CCC(N3CCc4ccccc4NC3=O)CC2)S[C@@H]1c1cccc(F)c1C1CCNCC1 [Compound 552, 3-(1-(2-((2R,5S)-2-(3-fluoro-2-(piperidin-4-yl)phenyl)-3-(3,3-dimethylbutyl)-4-oxothiazolidin-5-yl)acetyl)piperidin-4-yl)-4,5-dihydro-1H-benzo[d][1,3]diazepin-2(3H)-one] | > 6.00 | > 6.00
CCCN1C(=O)[C@H](CC(=O)N2CCC(n3c(=O)[nH]c4ncccc43)CC2)SC1c1cccc(F)c1N1CCN(C(C)(C)C)CC1 (stereo partly drawn) [Compound 538] | > 6.00 | > 6.00
CC(C)(C)CCN1C(=O)[C@H](CC(=O)N2CCC(N3CCc4ccccc4NC3=O)CC2)S[C@H]1c1cccc(F)c1C1CCNCC1 [Compound 553, 3-(1-(2-((2S,5S)-2-(3-fluoro-2-(piperidin-4-yl)phenyl)-3-(3,3-dimethylbutyl)-4-oxothiazolidin-5-yl)acetyl)piperidin-4-yl)-4,5-dihydro-1H-benzo[d][1,3]diazepin-2(3H)-one] | 5.30 to 6.00 | > 6.00
CC(C)(C)N1CCN(c2c(F)cccc2C2S[C@@H](CC(=O)N3CCC(N4CCc5ccccc5NC4=O)CC3)C(=O)N2CC2CCCCC2)CC1 (stereo partly drawn) [Compound 515] | > 6.00 | > 6.00
CN1CCN(c2ccccc2C2N(CCC(C)(C)C)C(=O)C(CC(=O)N3CCC(N4Cc5ccccc5NC4=O)CC3)[S+]2[O-])CC1 (stereo not drawn) [Compound 307] | > 6.00 | > 6.00
CC(C)(C)CCN1C(=O)C(CC(=O)N2CCC(N3CCc4ccccc4NC3=O)CC2)SC1c1ccccc1F (stereo not drawn) [Compound 244] | > 6.00 | > 6.00
CCOCCCN1C(=O)C(CC(=O)N2CCC(N3Cc4ccccc4NC3=O)CC2)SC1c1ccccc1 (stereo not drawn) [Compound 159] | > 6.00 | > 6.00
CN1CCN(c2ccccc2[C@@H]2S[C@](C)(CC(=O)N3CCC(N4CCc5ccccc5NC4=O)CC3)C(=O)N2CCC(C)(C)C)CC1 [Compound 375] | > 6.00 | > 6.00
COc1ccc(C2SC(CC(=O)N3CCC(N4Cc5ccccc5NC4=O)CC3)C(=O)N2CCC(C)C)c(F)c1 (stereo not drawn) [Compound 283] | 5.30 to 6.00 | > 6.00
CC(C)(C)CCN1C(=O)C(CC(=O)N2CCC(N3CCc4ccccc4NC3=O)CC2)SC12CCSCC2 (stereo not drawn) [Compound 15] | > 6.00 | > 6.00
CC(C)(C)CCN1C(=O)C(CC(=O)N2CCC(N3Cc4ccccc4NC3=O)CC2)SC12CCCc1ccccc12 (stereo not drawn) [Compound 315] | > 6.00 | > 6.00
CC(C)CCN1C(=O)C(CC(=O)N2CCC(n3cc(-c4ccccc4)[nH]c3=O)CC2)SC1c1ccc(F)cc1F (stereo not drawn) [Compound 237] | > 6.00 | < 5.30
CC(C)(C)CCN1C(=O)[C@H](CC(=O)N2CCC(N3CCc4ccccc4NC3=O)CC2)SC1c1cccc(F)c1N1CC[C@@H](O)C1 (stereo partly drawn) [Compound 487] | > 6.00 | > 6.00
CC(C)(C)CCN1C(=O)[C@H](CC(=O)N2CCC(n3c(=O)[nH]c4ncccc43)CC2)SC1c1cccc(F)c1N1CCC(c2ccncc2)CC1 (stereo partly drawn) [Compound 556] | > 6.00 | > 6.00
CN1CCN(c2ccc(F)cc2C2SC(CC(=O)N3CCC(n4c(=O)[nH]c5ncccc54)CC3)C(=O)N2CCC(C)(C)C)CC1 (stereo not drawn) [Compound 353] | > 6.00 | > 6.00
CN(C)CCNc1c(F)cccc1C1S[C@@H](CC(=O)N2CCC(n3c(=O)[nH]c4ncccc43)CC2)C(=O)N1CCC(C)(C)C (stereo partly drawn) [Compound 518, 1-(1-(2-((5S)-2-(2-(2-(Dimethylamino)ethylamino)-3-fluorophenyl)-3-(3,3-dimethylbutyl)-4-oxothiazolidin-5-yl)acetyl)piperidin-4-yl)-1H-imidazo[4,5-b]pyridin-2(3H)-one] | > 6.00 | > 6.00
CC(C)(C)CCN1C(=O)C(CC(=O)N2CCC(N3Cc4ccccc4NC3=O)CC2)SC1c1ncc[nH]1 (stereo not drawn) [Compound 306] | < 5.30 | < 5.30
CC(C)(C)CCN1C(=O)C(CC(=O)N2CCC(N3CCc4ccccc4NC3=O)CC2)SC1c1ccc(F)cc1F (stereo not drawn) [Compound 54] | > 6.00 | > 6.00
